The values that follow come from patent publication US10004701B2, “Methods and compositions for treating infection” (UNIVERSITY OF ROCHESTER, priority 2012, dated 2018).

Structures can show the parent of a compound that is named as a salt. Where two headings read alike, the source gives them in different places.

Holding throughout (test): AK assay 384-well format, Prestwick library screening
One assay concerns E. faecium. Format: cell-based, Enterococcus faecium. The settings on record: 50 μM final drug concentration; for fold induction at 50 µM: Enterococcus faecium, 3 h.
Assay [1] deals with S. aureus strain USA300-0114. Type of assay: cell-based, Staphylococcus aureus. Conditions: 50 μM final drug concentration; for fold induction at 50 µM: Staphylococcus aureus, USA300, 3 h.
The next assay relates to K. pneumoniae. Format: cell-based, Klebsiella pneumoniae. The settings on record: 50 μM final drug concentration; for fold induction at 50 µM: Klebsiella pneumoniae, 3 h.
The subject of assay [2] is A. baumannii strain 98-37-09. Type of assay: cell-based, Acinetobacter baumannii. Conditions: 50 μM final drug concentration; for fold induction at 50 µM: Acinetobacter baumannii, 983709, 3 h.
The subject of a further assay is P. aeruginosa. Type of assay: cell-based, Pseudomonas aeruginosa. Conditions: 50 μM final drug concentration; for fold induction at 50 µM: Pseudomonas aeruginosa, 3 h.
For the next assay, the system named is E. cloacae. Format: cell-based, Enterobacter cloacae. Conditions: 50 μM final drug concentration; for fold induction at 50 µM: Enterobacter cloacae, 3 h.
A further assay has as its system E. coli. Type of assay: cell-based, Escherichia coli. The settings on record: 50 μM final drug concentration; for fold induction at 50 µM: Escherichia coli, 3 h.
[3] abbreviates: cutoff for positive-scoring molecules 3-fold increase, read-out: AK-based Prestwick Library Screening Results, E. faecium (fold increase in extracellular AK activity).
The mark [4] stands for this setting: cutoff for positive-scoring molecules 3-fold increase, read-out: AK-based Prestwick Library Screening Results, S. aureus (fold increase in extracellular AK activity).
[5] abbreviates: cutoff for positive-scoring molecules 3-fold increase, read-out: AK-based Prestwick Library Screening Results, K. pneumoniae (fold increase in extracellular AK activity).
The mark [6] stands for this setting: cutoff for positive-scoring molecules 3-fold increase, read-out: AK-based Prestwick Library Screening Results, A. baumannii (fold increase in extracellular AK activity).
[7] abbreviates: cutoff for positive-scoring molecules 3-fold increase, read-out: AK-based Prestwick Library Screening Results, P. aeruginosa (fold increase in extracellular AK activity).
The mark [8] stands for this setting: cutoff for positive-scoring molecules 3-fold increase, read-out: AK-based Prestwick Library Screening Results, E. cloacae (fold increase in extracellular AK activity).
The mark [9] stands for this setting: cutoff for positive-scoring molecules 3-fold increase, read-out: AK-based Prestwick Library Screening Results, E. coli (fold increase in extracellular AK activity).

As to `COc1ccc(C2CNC(=O)C2)cc1OC1CCCC1` (stereo not drawn) [Rolipram], the fold induction at 50 µM is 1 with E. faecium (setting [3]); 1.3 in assay [1] (setting [4]); 1 with K. pneumoniae (setting [5]); 1.2 in assay [2] (setting [6]); 1.2 in the assay on P. aeruginosa (setting [7]); 1.7 in the assay with E. cloacae (setting [8]). In addition, in the assay on E. coli (setting [9]), the fold induction at 50 µM worked out at 1.1.

Regarding `CN(C)[C@@H]1C(O)=C(C(=O)NCN2CCCC2)C(=O)[C@@]2(O)C(O)=C3C(=O)c4c(O)cccc4[C@@](C)(O)[C@H]3C[C@@H]12` [Rolitetracycline], the fold induction at 50 µM in the assay with E. faecium (setting [3]) was found to be 1; in assay [1] (setting [4]) it was 1.1; with K. pneumoniae (setting [5]) it was 1; in assay [2] (setting [6]), 1.2; with P. aeruginosa (setting [7]), 1.1; in the assay with E. cloacae (setting [8]), 1.7. In addition, the fold induction at 50 µM in the assay with E. coli (setting [9]) was 1.1.

On to `Cn1c([N+](=O)[O-])cnc1COC(N)=O` [Ronidazole], for which the fold induction at 50 µM with E. faecium (planktonic E. faecium, positive cutoff 3-fold increase, read-out: AK-based Prestwick library screening result, E. faecium (fold increase in extracellular AK activity)) is 1.1; in assay [1] (planktonic S. aureus, positive cutoff 3-fold increase, read-out: AK-based Prestwick library screening result, S. aureus (fold increase in extracellular AK activity)) it was 1.3; in the assay with K. pneumoniae (planktonic K. pneumoniae, positive cutoff 3-fold increase, read-out: AK-based Prestwick library screening result, K. pneumoniae (fold increase in extracellular AK activity)), 1.7; in assay [2] (planktonic A. baumannii, positive cutoff 3-fold increase, read-out: AK-based Prestwick library screening result, A. baumannii (fold increase in extracellular AK activity)), 1.6; with P. aeruginosa (planktonic P. aeruginosa, positive cutoff 3-fold increase, read-out: AK-based Prestwick library screening result, P. aeruginosa (fold increase in extracellular AK activity)), 1; in the assay on E. cloacae (planktonic E. cloacae, positive cutoff 3-fold increase, read-out: AK-based Prestwick library screening result, E. cloacae (fold increase in extracellular AK activity)), 1.6. In addition, the fold induction at 50 µM in the assay on E. coli (planktonic E. coli, positive cutoff 3-fold increase, read-out: AK-based Prestwick library screening result, E. coli (fold increase in extracellular AK activity)) is 1.1.

Take `O=[N+]([O-])c1cc([As](=O)(O)O)ccc1O` [Roxarsone]: the “AK-based Prestwick Library Screening Results, E. faecium (fold increase in extracellular AK activity)” value in the assay on E. faecium ([…]) was determined as 0.8. In assay [1] ([…]), the “AK-based Prestwick Library Screening Results, S. aureus (fold increase in extracellular AK activity)” value is recorded as 0.6. Moreover, in the assay on K. pneumoniae ([…]), the “AK-based Prestwick Library Screening Results, K. pneumoniae (fold increase in extracellular AK activity)” value is listed as 0.4. Further, the “AK-based Prestwick Library Screening Results, A. baumannii (fold increase in extracellular AK activity)” value in assay [2] ([…]) came to 0.5. Besides, the “AK-based Prestwick Library Screening Results, P. aeruginosa (fold increase in extracellular AK activity)” value with P. aeruginosa ([…]) is 0.5. Further, the “AK-based Prestwick Library Screening Results, E. cloacae (fold increase in extracellular AK activity)” value in the assay with E. cloacae ([…]) worked out at 0.5. In addition, in the assay with E. coli ([…]), the “AK-based Prestwick Library Screening Results, E. coli (fold increase in extracellular AK activity)” value worked out at 0.4.

For the molecule `CC(=O)OCC(=O)NCCCOc1cccc(CN2CCCCC2)c1` [Roxatidine Acetate HCl], the fold induction at 50 µM with E. faecium (planktonic E. faecium, cutoff for positive-scoring molecules 3-fold increase, read-out: AK-based Prestwick Library Screening Results, E. faecium (increase in extracellular AK activity)) was 1; in assay [1] (planktonic S. aureus, cutoff for positive-scoring molecules 3-fold increase, read-out: AK-based Prestwick Library Screening Results, S. aureus (increase in extracellular AK activity)) it was 0.6; in the assay with K. pneumoniae (planktonic K. pneumoniae, cutoff for positive-scoring molecules 3-fold increase, read-out: AK-based Prestwick Library Screening Results, K. pneumoniae (increase in extracellular AK activity)), 0.7; in assay [2] (planktonic A. baumannii, cutoff for positive-scoring molecules 3-fold increase, read-out: AK-based Prestwick Library Screening Results, A. baumannii (increase in extracellular AK activity)), 0.8; in the assay on P. aeruginosa (planktonic P. aeruginosa, cutoff for positive-scoring molecules 3-fold increase, read-out: AK-based Prestwick Library Screening Results, P. aeruginosa (increase in extracellular AK activity)), 0.7; in the assay with E. cloacae (planktonic E. cloacae, cutoff for positive-scoring molecules 3-fold increase, read-out: AK-based Prestwick Library Screening Results, E. cloacae (increase in extracellular AK activity)) it was 0.9. Besides, in the assay on E. coli (planktonic E. coli, cutoff for positive-scoring molecules 3-fold increase, read-out: AK-based Prestwick Library Screening Results, E. coli (increase in extracellular AK activity)), the fold induction at 50 µM was determined as 0.8.

On to `CC[C@H]1OC(=O)[C@H](C)[C@@H](O[C@H]2C[C@@](C)(OC)[C@@H](O)[C@H](C)O2)[C@H](C)[C@@H](O[C@@H]2O[C@H](C)C[C@H](N(C)C)[C@H]2O)[C@](C)(O)C[C@@H](C)/C(=N\OCOCCOC)[C@H](C)[C@@H](O)[C@]1(C)O` [Roxithromycin], for which the fold induction at 50 µM in the assay on E. faecium (setting [3]) was found to be 1.4; in assay [1] (setting [4]), 2.8; with K. pneumoniae (setting [5]), 1.1; in assay [2] (setting [6]) it was 1; in the assay on P. aeruginosa (setting [7]), 0.9; in the assay with E. cloacae (setting [8]), 1.5. Besides, in the assay with E. coli (setting [9]), the fold induction at 50 µM came out at 0.9.

As to `c1ccc2c(c1)CCCc1cc(NCCN3CCOCC3)nnc1-2` [SR-95639A], the “AK-based Prestwick Library Screening Results: E. faecium (increase in extracellular AK activity)” value in the assay on E. faecium (planktonic E. faecium, 384-well, […]) came to 0.8. For the same molecule, the “AK-based Prestwick Library Screening Results: S. aureus (increase in extracellular AK activity)” value in assay [1] (planktonic S. aureus, 384-well, […]) is on record as 0.4. In the assay with K. pneumoniae (planktonic K. pneumoniae, 384-well, […]), the “AK-based Prestwick Library Screening Results: K. pneumoniae (increase in extracellular AK activity)” value is on record as 0.5. Also, the “AK-based Prestwick Library Screening Results: A. baumannii (increase in extracellular AK activity)” value in assay [2] (planktonic A. baumannii, 384-well, […]) worked out at 0.5. The “AK-based Prestwick Library Screening Results: P. aeruginosa (increase in extracellular AK activity)” value in the assay on P. aeruginosa (planktonic P. aeruginosa, 384-well, […]) is on record as 0.4. Also, in the assay on E. cloacae (planktonic E. cloacae, 384-well, […]), the “AK-based Prestwick Library Screening Results: E. cloacae (increase in extracellular AK activity)” value was 0.4. Also, the “AK-based Prestwick Library Screening Results: E. coli (increase in extracellular AK activity)” value in the assay with E. coli (planktonic E. coli, 384-well, […]) is reported as 0.5.

Take `CC(C)(C)NCC(O)c1ccc(O)c(CO)c1` (stereo not drawn) [Salbutamol]: the fold induction at 50 µM in the assay with E. faecium (384-well format, cutoff for positive-scoring molecules 3-fold increase, read-out: AK-based Prestwick Library Screening Results, E. faecium (increase in extracellular AK activity)) was 1; in assay [1] (384-well format, cutoff for positive-scoring molecules 3-fold increase, read-out: AK-based Prestwick Library Screening Results, S. aureus (increase in extracellular AK activity)) it was 0.8; in the assay on K. pneumoniae (384-well format, cutoff for positive-scoring molecules 3-fold increase, read-out: AK-based Prestwick Library Screening Results, K. pneumoniae (increase in extracellular AK activity)), 0.7; in assay [2] (384-well format, cutoff for positive-scoring molecules 3-fold increase, read-out: AK-based Prestwick Library Screening Results, A. baumannii (increase in extracellular AK activity)), 0.9; with P. aeruginosa (384-well format, cutoff for positive-scoring molecules 3-fold increase, read-out: AK-based Prestwick Library Screening Results, P. aeruginosa (increase in extracellular AK activity)), 0.8; in the assay with E. cloacae (384-well format, cutoff for positive-scoring molecules 3-fold increase, read-out: AK-based Prestwick Library Screening Results, E. cloacae (increase in extracellular AK activity)) it was 1.4. The fold induction at 50 µM in the assay on E. coli (384-well format, cutoff for positive-scoring molecules 3-fold increase, read-out: AK-based Prestwick Library Screening Results, E. coli (increase in extracellular AK activity)) came out at 0.9.

As for `OCc1cc(C(O)CNCCCCCCOCCCCc2ccccc2)ccc1O` (stereo not drawn) [Salmeterol], the fold induction at 50 µM is 1 in the assay on E. faecium (setting [3]); 1.9 in assay [1] (setting [4]); 1.1 in the assay on K. pneumoniae (setting [5]); 1.5 in assay [2] (setting [6]); 1.2 in the assay with P. aeruginosa (setting [7]); 1.5 with E. cloacae (setting [8]). Also, in the assay on E. coli (setting [9]), the fold induction at 50 µM was 1.4.
